Data reported in EP0359821A1, “METHOD OF STERILIZING PLANT ANTHERS” (priority 1988, dated 1989).

How the values were obtained:
[1] = tested on: Tetraploider Roggen Sorte Gibrid 67; assay: Field trial of gametocidal activity, tetraploid rye Gibrid 67; assay type: in vivo; settings: 1% aqueous emulsion, 10 kg/ha
Source text: (§1) Bei Weizen und Tritikale werden Einzelisolatoren verwendet.
Pflanzen von tetraploidem Roggen Sorte Gibrid 67 werden in der V. oder VI.

in vivo = settings: mouse
[2] = tested on: Diploider Roggen Sorte Gibrid 1864/74; assay: Field trial of gametocidal activity, diploid rye Gibrid 1864/74; settings: 1% aqueous emulsion, 10 kg/ha
[3] = tested on: Diploider Roggen Sorte Chulpan; assay: Field trial of gametocidal activity, diploid rye Chulpan; assay type: in vivo
Source text: as §1
Pflanzen von diploidem Roggen Sorte Chulpan werden in der V. oder VI.
Der Verbrauch an Sterilisationsmitteln beträgt 10 kg/ha.

[4] = tested on: Tetraploider Roggen Sorte Belta; assay: Field trial of gametocidal activity, tetraploid rye Belta; assay type: in vivo; settings: 1% aqueous emulsion, 10 kg/ha
[5] = tested on: Hirse Sorte Mironovskoe 94; assay: Field trial of gametocidal activity, millet Mironovskoe 94; assay type: in vivo; settings: 1% aqueous emulsion, 10 kg/ha
[6] = tested on: Tetraploider Roggen Sorte Jubileinaya; assay: Field trial of gametocidal activity, tetraploid rye Jubileinaya; settings: 1% aqueous emulsion, 10 kg/ha
[7] = tested on: Winterweizens Sorte Mironovskaya 808; assay: Field trial of gametocidal activity (anther sterilisation), winter wheat; assay type: in vivo, Weizen; settings: 2% aqueous emulsion, 20 kg/ha
[8] = tested on: Sommerweizen Sorte Moskovskaya 35; assay: Field trial of gametocidal activity, spring wheat; assay type: in vivo, Weizen; settings: 1% aqueous emulsion
weisse Mäuse = settings: mouse, in vivo
[9] = tested on: Hirse Sorte K-9693 Kormovoe 1; assay: Field trial of gametocidal activity, millet K-9693 Kormovoe 1; settings: 1% aqueous emulsion, 10 kg/ha
[10] = in vivo
[11] = Chulpan, single compounds, 1% aqueous emulsion, 10 kg/ha, V. or VI. period
[12] = V. or VI. period, read-out: Prozentsatz der Sterilität
[13] = control = 100, read-out: Prozentsatz des Ansetzens bei freier Bestäubung
[14] = V. or VI. period of organogenesis

Question: Which “Prozentsatz der Sterilität” value ([1]; V. or VI. period) does the source give for O=C(O)c1ccc(O)cc1 [Beispiel 28, Monoäthanolaminat der p-Hydroxybenzoesäure] here?
Answer: Its value is 99,7%.

Question: And the “Prozentsatz des Ansetzens bei freier Bestäubung” value ([1]; control = 100)?
Answer: Its value is 93,4%.

Question: And the LD50 (in vivo; LD50, weisse Mäuse)?
Answer: Its LD50 is 3200 mg/kg.

Question: And the “Anzahl von Körnern der Ähre bei freier Bestäubung” value ([2]; V. period)?
Answer: The value was 46,7.

Question: And the “Anzahl von Körnern der Ähre im Isolator” value ([2]; V. period)?
Answer: The value was 1,8.

Question: And the “Prozentsatz der Sterilität” value ([2]; V. period)?
Answer: Its value is 95,6%.

Question: What about the “Prozentsatz des Ansetzens bei freier Bestäubung” value ([2]; control = 100) of the same compound?
Answer: Its value is 97,7%.

Question: With O=C(O)c1ccccc1C(=O)O [Beispiel 55, Phthalsäuremonoäthanolaminsalz] as the compound, how does the “Anzahl von Körnern der Ähre bei freier Bestäubung” value [3, 11] read?
Answer: Its value is 55,6.

Question: What about the “Anzahl von Körnern der Ähre im Isolator” value [3, 11] of the same compound?
Answer: Its value is 3,1.

Question: And the pest or weed control at 10000 g/ha ([3]; read-out: Prozentsatz der Sterilität)?
Answer: Its pest or weed control at 10000 g/ha is 94%.

Question: And the response vs control in vivo at 10000 g/ha ([3]; read-out: Prozentsatz des Ansetzens bei freier Bestäubung)?
Answer: Its response vs control in vivo at 10000 g/ha is 98.1%.

Question: What about the “Anzahl von Körnern der Ähre bei freier Bestäubung” value ([4]; V. or VI. period) of the same compound?
Answer: The value was 44,0.

Question: And the “Anzahl von Körnern der Ähre im Isolator” value ([4]; V. or VI. period)?
Answer: The value was 0,3.

Question: What about the percent sterility at 10000 g/ha [4, 12] of the same compound?
Answer: Its percent sterility at 10000 g/ha is 99.3%.

Question: And the response vs control in vivo at 10000 g/ha [4, 13]?
Answer: Its response vs control in vivo at 10000 g/ha is 99.3%.

Question: What about the “Anzahl von Körnern der Rispe bei freier Bestäubung” value ([5]; V. or VI. period) of the same compound?
Answer: Its value is 350,9.

Question: And the “Anzahl von Körnern der Rispe im Isolator” value ([5]; V. or VI. period)?
Answer: Its value is 0,0.

Question: And the percent pollen sterility at 10000 g/ha [5, 12]?
Answer: Its percent pollen sterility at 10000 g/ha is 100%.

Question: And the response vs control in vivo at 10000 g/ha [5, 13]?
Answer: The response vs control in vivo at 10000 g/ha was 92.5%.

Question: What about the LD50 (in vivo) of the same compound?
Answer: The LD50 was 1100 mg/kg.

Question: And the “Anzahl von Körnern der Ähre bei freier Bestäubung” value ([6]; V. or VI. period)?
Answer: Its value is 46,0.

Question: What about the “Anzahl von Körnern der Ähre im Isolator” value ([6]; V. or VI. period) of the same compound?
Answer: Its value is 0,0.

Question: What about the “Prozentsatz des Ansetzens bei freier Bestäubung” value ([6]; control = 100) of the same compound?
Answer: The value was 95,0%.

Question: What does the source list for O=C(O)c1ccccc1O [Beispiel 62, Äthanolaminsalz der Salizylsäure]?
Answer: Anzahl von Körnern der Ähre bei freier Bestäubung ([1]; V. or VI. period): 40,8; Anzahl von Körnern der Ähre im Isolator ([1]; V. or VI. period): 0,0

Question: What does the source list for OCC(O)CSc1ccc(F)cc1 (stereo not shown) [Beispiel I3]?
Answer: Anzahl von Körnern der Ähre bei freier Bestäubung [7, 14]: 38,2; Anzahl von Körnern der Ähre im Isolator [7, 14]: 3,2; response vs control in vivo at 20000 g/ha [7, 13]: 94.3%; Anzahl von Körnern der Ähre bei freier Bestäubung ([8]; 10 kg/ha, V. period): 26,4; Anzahl von Körnern der Ähre im Isolator ([8]; 10 kg/ha, V. period): 2,0; percent sterility at 10000 g/ha ([8]; 10 kg/ha, V. period, read-out: Prozentsatz der Sterilität): 92.3%; response vs control in vivo [8, 13]: 96%; LD50 (weisse Mäuse): 400 mg/kg Tiergewicht; LD50 (in vivo; LD50, weisse Mäuse): ~400 mg/kg; Anzahl von Körnern der Rispe bei freier Bestäubung ([9]; V. or VI. period): 128,7; Anzahl von Körnern der Rispe im Isolator ([9]; V. or VI. period): 0,0; Prozentsatz der Sterilität ([9]; V. or VI. period): 100%; Prozentsatz des Ansetzens bei freier Bestäubung ([9]; control = 100): 87,7%

Question: With CCC(CO)(CO)CBr [I-Brom-2,2-di-methylol-butan] as the compound, how does the “Toxizität im Tierversuch” value [10] read?
Answer: Its value is “praktisch nichttoxische”.

Question: Which “Toxizität im Tierversuch” value [10] does the source give for CCC(CO)(CO)CO [Trimethylolpropan] here?
Answer: The value was “praktisch nichttoxische”.
